The text below walks through data of patent EP2502917A1, “Solid state crystalline forms of 4-(2-ethyl-5-fluoro-2,3-dihydro-1H-inden-2-yl)-1H-imidazole” (Santhera Pharmaceuticals (Schweiz) AG, priority 2011, dated 2012).

By solubility is commonly meant the dissolved amount per volume that the medium holds.

The nature of data set [1]: Aqueous solubility by UV/Vis spectroscopy (extinction at 270 nm) of the filtered suspension. The format is physicochemical. Particulars: remaining solid is form A, aliquot diluted by a factor of 500, extinction at 270 nm. On the procedure: A suspension of 118 mg fipamezole hydrochloride form B in 1 mL H2O is stirred at room temperature for two days. […] An aliquot of the solution is diluted with water by a factor of 500 and analyzed by UVNis spectroscopy.
A suspension of 97 mg fipamezole hydrochloride form B* in 0.5 mL H2O is stirred at room temperature for two days. […] An aliquot of the solution is diluted with water by a factor of 500 and analyzed by UVNis spectroscopy.
A suspension of 110 mg fipamezole hydrochloride form D in 0.5 mL H2O is stirred at room temperature for two days. […] An aliquot of the solution is diluted with water by a factor of 500 and analyzed by UVNis spectroscopy.

A short description of data set [2]: Thermodynamic stability of polymorphs (differential scanning calorimetry). Format: physicochemical. Particulars: enantiotropic pair: form A is the low temperature form, form D the high temperature form. On the procedure: Both forms can be converted into each other, accordingly, forms A and D represent an enantiotropic pair of polymorphs whereby form A is the low temperature form and form D the high temperature form. Differential Scanning Calorimetry (DSC): DSC measurements were carried out on a Perkin Elmer DSC-7. The samples were placed into gold crucibles that were sealed under nitrogen. The measurements were performed with a heating rate of 10 or 20 °C min^-1 over the temperature range from -50 °C to about 200°C.
On the technique in general: In DSC, transitions show as peaks or steps in heat flow.

In the case of `CCC1(c2c[nH]cn2)Cc2ccc(F)cc2C1.Cl` (stereo not shown) [form A, 4-(2-Ethyl-5-fluoro-2,3-dihydro-1H-inden-2-yl)-1H-imidazole hydrochloride], the aqueous solubility result is “about 43 g/L” in data set [1] (suspension of form B* in H2O stirred at room temperature for two days) and “about 46 g/L” in data set [1] (suspension of form D in H2O stirred at room temperature for two days). The same compound came in with a solubility at 2 days in data set [1] (water, thermodynamic from solid, suspension of form B in H2O stirred at room temperature for two days) of approximately 46 mg/mL. Also, the thermodynamic stability result in data set [2] is “high thermodynamic stability”.
